Assay results from patent publication US11840537B2, “Preparation and application of a 5-bromoquinazoline derivative” (Hefei University of Technology, priority 2020, dated 2023).
Counter-ions that a name gives are not always drawn.

Experiments:
Assay type in all cases: cell-based
leukemia HL-60 = experiment: Anti-cancer activity, leukemia HL-60 cells
[1] = tested on: hepatoma carcinoma cell SMMC-7721; experiment: Anti-cancer activity, hepatoma carcinoma cell SMMC-7721; details: liver cancer (SMMC-7721)
colon cancer SW480 = experiment: Anti-cancer activity, colon cancer SW480 cells
breast cancer cell MCF-7 = experiment: Anti-cancer activity, breast cancer cell MCF-7; details: breast cancer cells (MCF-7)

Measured: strong inhibitory activity (ED50)

COC(=O)C1(Nc2nc(=O)[nH]c3ccc(Br)cc23)c2cc(Br)ccc2NC12C(=O)Nc1ccc(Br)cc12 (stereo not shown) [compound (I), 3-[5, 5′-dibromo-3-((6-bromo-2-oxo-1,2-dihydroquinazoline-4-amino)-2′-oxo (2,3′-spirobisindole)]methyl formate]
< 10.0 µg/mL: all assays above
